In US9738634B2, “Heterocyclic amide compound and herbicide” (SYNGENTA PARTICIPATIONS AG, priority 2013, dated 2017):

Assays:
Assay type in all cases: in vivo
Conditions in all cases: treatment dosage 320 g/ha
[1] = test system: barnyard grass; test: Test Example 1: weedkilling efficacy, preemergent weed treatment in the submerged state; A: barnyard grass
Procedure, shortened: (§1)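 Alluvial soil in Wagner pots flooded to 4 cm; barnyard grass, bulrush and oval-leafed pondweed seeds sown, then 2.5-leaf rice seedlings transplanted. Same day, emulsified compound diluted in water to set g/ha dosages and applied to water surface; greenhouse 25–30 °C, effect scored by criteria after 3 weeks.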

[2] = test system: bulrush; test: Test Example 1: weedkilling efficacy, preemergent weed treatment in the submerged state; B: bulrush
Procedure, shortened: as §1

[3] = test system: oval-leafed pondweed; test: Test Example 1: weedkilling efficacy, preemergent weed treatment in the submerged state; C: oval-leafed pondweed
Procedure, shortened: as §1

[4] = test system: transplanted rice; test: Test Example 1: preemergent weed treatment in the submerged state, effect on crop; a: transplanted rice
Procedure, shortened: as §1

[5] = test system: barnyard grass; test: Test Example 2: weedkilling efficacy, growth period weed treatment in the submerged state; A: barnyard grass
Procedure, shortened: (§2)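 First, alluvial soil in pots is flooded to 4 cm and mixed seed is sown. Next, plants grow in a greenhouse at 25 to 30° C until the 1-2 leaf stage. Then diluted emulsion is applied onto the water surface at the given g/ha rate, and injury is assessed after 3 weeks.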

[6] = test system: bulrush; test: Test Example 2: weedkilling efficacy, growth period weed treatment in the submerged state; B: bulrush
Procedure, shortened: as §2

[7] = test system: oval-leafed pondweed; test: Test Example 2: weedkilling efficacy, growth period weed treatment in the submerged state; C: oval-leafed pondweed
Procedure, shortened: as §2

[8] = test system: crabgrass; test: Test Example 3: weedkilling efficacy through soil treatment; D: crabgrass
Procedure, shortened: (§3)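 Crop and weed responses were judged three weeks after a uniform surface spray of the water-diluted emulsion at the given g/ha rate. Seeds sat beneath about 1.5 cm of sterilized diluvial soil, and boxes stood in a greenhouse at 25 to 30° C.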

[9] = test system: green foxtail; test: Test Example 3: weedkilling efficacy through soil treatment; E: green foxtail
Procedure, shortened: as §3

[10] = test system: barnyard grass; test: Test Example 3: weedkilling efficacy through soil treatment; F: barnyard grass
Procedure, shortened: as §3

[11] = test system: wild oat; test: Test Example 3: weedkilling efficacy through soil treatment; G: wild oat
Procedure, shortened: as §3

[12] = test system: black-grass; test: Test Example 3: weedkilling efficacy through soil treatment; H: black-grass
Procedure, shortened: as §3

[13] = test system: Italian ryegrass; test: Test Example 3: weedkilling efficacy through soil treatment; I: Italian ryegrass
Procedure, shortened: as §3

[14] = test system: common wind-grass; test: Test Example 3: weedkilling efficacy through soil treatment; J: common wind-grass
Procedure, shortened: as §3

[15] = test system: Indian mallow; test: Test Example 3: weedkilling efficacy through soil treatment; K: Indian mallow
Procedure, shortened: as §3

[16] = test system: redroot pigweed; test: Test Example 3: weedkilling efficacy through soil treatment; L: redroot pigweed
Procedure, shortened: as §3

[17] = test system: fig-leafed goosefoot; test: Test Example 3: weedkilling efficacy through soil treatment; M: fig-leafed goosefoot
Procedure, shortened: as §3

[18] = test system: chickweed; test: Test Example 3: weedkilling efficacy through soil treatment; N: chickweed
Procedure, shortened: as §3

[19] = test system: catchweed; test: Test Example 3: weedkilling efficacy through soil treatment; O: catchweed
Procedure, shortened: as §3

[20] = test system: birds-eye speedwell; test: Test Example 3: weedkilling efficacy through soil treatment; p: birds-eye speedwell
Procedure, shortened: as §3

[21] = test system: directly sown rice; test: Test Example 3: soil treatment, effect on crop; b: directly sown rice
Procedure, shortened: as §3

[22] = test system: corn; test: Test Example 3: soil treatment, effect on crop; c: corn
Procedure, shortened: as §3

[23] = test system: soybean; test: Test Example 3: soil treatment, effect on crop; d: soybean
Procedure, shortened: as §3

[24] = test system: wheat; test: Test Example 3: soil treatment, effect on crop; e: wheat
Procedure, shortened: as §3

[25] = test system: beet; test: Test Example 3: soil treatment, effect on crop; f: beet
Procedure, shortened: as §3

[26] = test system: rapeseed; test: Test Example 3: soil treatment, effect on crop; g: rapeseed
Procedure, shortened: as §3

[27] = test system: crabgrass; test: Test Example 4: weedkilling efficacy by foliar treatment; D: crabgrass
Procedure, shortened: (§4)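 Seeds are spot-sown into sterilized diluvial soil and covered with about 1.5 cm of soil. After 14 days' greenhouse growth at 25 to 30° C, plants are sprayed on stems and leaves with diluted emulsion at the stated g/ha rate, then scored at 3 weeks.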

[28] = test system: green foxtail; test: Test Example 4: weedkilling efficacy by foliar treatment; E: green foxtail
Procedure, shortened: as §4

[29] = test system: barnyard grass; test: Test Example 4: weedkilling efficacy by foliar treatment; F: barnyard grass
Procedure, shortened: as §4

[30] = test system: wild oat; test: Test Example 4: weedkilling efficacy by foliar treatment; G: wild oat
Procedure, shortened: as §4

[31] = test system: black-grass; test: Test Example 4: weedkilling efficacy by foliar treatment; H: black-grass
Procedure, shortened: as §4

[32] = test system: Italian ryegrass; test: Test Example 4: weedkilling efficacy by foliar treatment; I: Italian ryegrass
Procedure, shortened: as §4

[33] = test system: common wind-grass; test: Test Example 4: weedkilling efficacy by foliar treatment; J: common wind-grass
Procedure, shortened: as §4

[34] = test system: Indian mallow; test: Test Example 4: weedkilling efficacy by foliar treatment; K: Indian mallow
Procedure, shortened: as §4

[35] = test system: redroot pigweed; test: Test Example 4: weedkilling efficacy by foliar treatment; L: redroot pigweed
Procedure, shortened: as §4

[36] = test system: fig-leafed goosefoot; test: Test Example 4: weedkilling efficacy by foliar treatment; M: fig-leafed goosefoot
Procedure, shortened: as §4

[37] = test system: chickweed; test: Test Example 4: weedkilling efficacy by foliar treatment; N: chickweed
Procedure, shortened: as §4

[38] = test system: catchweed; test: Test Example 4: weedkilling efficacy by foliar treatment; O: catchweed
Procedure, shortened: as §4

[39] = test system: birds-eye speedwell; test: Test Example 4: weedkilling efficacy by foliar treatment; p: birds-eye speedwell
Procedure, shortened: as §4

[40] = test system: directly sown rice; test: Test Example 4: foliar treatment, effect on crop; b: directly sown rice
Procedure, shortened: as §4

[41] = test system: corn; test: Test Example 4: foliar treatment, effect on crop; c: corn
Procedure, shortened: as §4

[42] = test system: soybean; test: Test Example 4: foliar treatment, effect on crop; d: soybean
Procedure, shortened: as §4

[43] = test system: wheat; test: Test Example 4: foliar treatment, effect on crop; e: wheat
Procedure, shortened: as §4

[44] = test system: beet; test: Test Example 4: foliar treatment, effect on crop; f: beet
Procedure, shortened: as §4

[45] = test system: rapeseed; test: Test Example 4: foliar treatment, effect on crop; g: rapeseed
Procedure, shortened: as §4

CCc1cc(F)nc(NC(=O)C(C)(C)N2COC(C)=C(c3ccccc3)C2=O)c1 [B-2-39]
A (barnyard grass) weedkilling efficacy grade [1]: 5 (weed kill ratio 90% or more, (practically complete withering)) | B (bulrush) weedkilling efficacy grade [2]: 5 (weed kill ratio 90% or more, (practically complete withering)) | C (oval-leafed pondweed) weedkilling efficacy grade [3]: 5 (weed kill ratio 90% or more, (practically complete withering)) | a (transplanted rice) effect on crop grade [4]: 1 (weed kill ratio 5% or more, less than 20%) | A (barnyard grass) weedkilling efficacy grade [5]: 5 (weed kill ratio 90% or more, (practically complete withering)) | B (bulrush) weedkilling efficacy grade [6]: 5 (weed kill ratio 90% or more, (practically complete withering)) | C (oval-leafed pondweed) weedkilling efficacy grade [7]: 5 (weed kill ratio 90% or more, (practically complete withering)) | D (crabgrass) weedkilling efficacy grade [8]: 5 (weed kill ratio 90% or more, (practically complete withering)) | E (green foxtail) weedkilling efficacy grade [9]: 5 (weed kill ratio 90% or more, (practically complete withering)) | F (barnyard grass) weedkilling efficacy grade [10]: 5 (weed kill ratio 90% or more, (practically complete withering)) | G (wild oat) weedkilling efficacy grade [11]: 5 (weed kill ratio 90% or more, (practically complete withering)) | H (black-grass) weedkilling efficacy grade [12]: 5 (weed kill ratio 90% or more, (practically complete withering)) | I (Italian ryegrass) weedkilling efficacy grade [13]: 5 (weed kill ratio 90% or more, (practically complete withering)) | J (common wind-grass) weedkilling efficacy grade [14]: 5 (weed kill ratio 90% or more, (practically complete withering)) | K (Indian mallow) weedkilling efficacy grade [15]: 2 (weed kill ratio 20% or more, less than 40%) | L (redroot pigweed) weedkilling efficacy grade [16]: 3 (weed kill ratio 40% or more, less than 70%) | M (fig-leafed goosefoot) weedkilling efficacy grade [17]: 4 (weed kill ratio 70% or more, less than 90%) | N (chickweed) weedkilling efficacy grade [18]: 4 (weed kill ratio 70% or more, less than 90%) | O (catchweed) weedkilling efficacy grade [19]: 4 (weed kill ratio 70% or more, less than 90%) | P (birds-eye speedwell) weedkilling efficacy grade [20]: 5 (weed kill ratio 90% or more, (practically complete withering)) | b (directly sown rice) effect on crop grade [21]: 4 (weed kill ratio 70% or more, less than 90%) | c (corn) effect on crop grade [22]: 0 (weed kill ratio 5% or less (practically no effect)) | d (soybean) effect on crop grade [23]: 0 (weed kill ratio 5% or less (practically no effect)) | e (wheat) effect on crop grade [24]: 0 (weed kill ratio 5% or less (practically no effect)) | f (beet) effect on crop grade [25]: 3 (weed kill ratio 40% or more, less than 70%) | g (rapeseed) effect on crop grade [26]: 4 (weed kill ratio 70% or more, less than 90%) | D (crabgrass) weedkilling efficacy grade [27]: 5 (weed kill ratio 90% or more, (practically complete withering)) | E (green foxtail) weedkilling efficacy grade [28]: 5 (weed kill ratio 90% or more, (practically complete withering)) | F (barnyard grass) weedkilling efficacy grade [29]: 5 (weed kill ratio 90% or more, (practically complete withering)) | G (wild oat) weedkilling efficacy grade [30]: 4 (weed kill ratio 70% or more, less than 90%) | H (black-grass) weedkilling efficacy grade [31]: 5 (weed kill ratio 90% or more, (practically complete withering)) | I (Italian ryegrass) weedkilling efficacy grade [32]: 5 (weed kill ratio 90% or more, (practically complete withering)) | J (common wind-grass) weedkilling efficacy grade [33]: 5 (weed kill ratio 90% or more, (practically complete withering)) | K (Indian mallow) weedkilling efficacy grade [34]: 4 (weed kill ratio 70% or more, less than 90%) | L (redroot pigweed) weedkilling efficacy grade [35]: 3 (weed kill ratio 40% or more, less than 70%) | M (fig-leafed goosefoot) weedkilling efficacy grade [36]: 5 (weed kill ratio 90% or more, (practically complete withering)) | N (chickweed) weedkilling efficacy grade [37]: 4 (weed kill ratio 70% or more, less than 90%) | O (catchweed) weedkilling efficacy grade [38]: 4 (weed kill ratio 70% or more, less than 90%) | P (birds-eye speedwell) weedkilling efficacy grade [39]: 5 (weed kill ratio 90% or more, (practically complete withering)) | b (directly sown rice) effect on crop grade [40]: 4 (weed kill ratio 70% or more, less than 90%) | c (corn) effect on crop grade [41]: 4 (weed kill ratio 70% or more, less than 90%) | d (soybean) effect on crop grade [42]: 4 (weed kill ratio 70% or more, less than 90%) | e (wheat) effect on crop grade [43]: 0 (weed kill ratio 5% or less (practically no effect)) | f (beet) effect on crop grade [44]: 4 (weed kill ratio 70% or more, less than 90%) | g (rapeseed) effect on crop grade [45]: 4 (weed kill ratio 70% or more, less than 90%)
